{"source": "patent US11576884B2", "about": "“Amino acid compositions and uses thereof” (University of Florida Research Foundation, Incorporated, priority 2016, dated 2023)", "tested_on": "Lgr5", "assay": "Western blot for Lgr5 protein", "assay_type": "in vivo, NIH Swiss mice", "conditions": "individual amino acid by gastric gavage (300 ul OD) for 6 days; 0 Gy and 5 Gy irradiated mice", "experimental": "For FIGS. 9-13, the data is from Male NIH Swiss mice (8 weeks) treated with individual amino acids (FIG. 9 (valine); FIG. 10 (tryptophan); FIG. 11 (serine); FIG. 12 (tyrosine); FIG. 13 (threonine)), as by gastric savage (300 ul OD) for a period of 6 days. Animals were sacrificed on day 6 by CO2 euthanasia and tissues collected for resolving the protein by western blot analysis. Lgr5 (100 KD) was used as the marker for crypt stem cell proliferation. These experiments are repeated at least 4 times (data shown) from 4 different mice.\nControl groups were given normal saline. […] Mice fasted for 8 hours prior to gavage.\nSignals were detected with Odyssey CLX from LI-COR.", "data": [{"smiles": "CC(C)[C@H](N)C(=O)O", "note": "[valine]", "values": [{"measurement": "Lgr5 protein levels", "result": "increases"}]}]}
